Laboratory results: patent US8304421B2, “Indole compounds and their use as radiation sensitizing agents and chemotherapeutic agents” (Vanderbilt University, priority 2008, dated 2012)

System: HUVECs
Assay: Tubule formation assay on Matrigel
Type: cell-based, Human
Settings: 25 μM, 24 hrs, assessed under microscope
Experimental: FIG. 5: HUVECs were plated on Matrigel, then treated wither DMSO or Compound 1 for 24 hrs. Tubule formation was assessed by looking under microscope.
Human umbilical vascular endothelial cells (HUVECs) (50,000 cells/well) were plated on Matrigel. After 30 min, the cells were treated either with DMSO or 25 μM Compound 1. Tubule formation was assessed by observing plates under microscope. FIG. 6 is represents 24 hr time point for DMSO and Compound 1.

SMILES: N#Cc1ccc(Cn2cc(C=C3C(=O)NC(=O)NC3=O)c3ccccc32)cc1 [Compound 1, 4-((3-((2,4,6-trioxotetrahydropyrimidin-5(6H)-ylidene)methyl)-1H-indol-1-yl)meth-yl)benzonitrile]
- Tubule formation by HUVECs: inhibited the tubule formation
